# Laboratory results reported in publication PMC11676667, “Pharmacokinetics of Oral Cannabinoid Δ8-Tetrahydrocannabivarin and Its Main Metabolites in Healthy Participants” (Pharmaceuticals, 2024).
# Experiment: Plasma pharmacokinetics after single oral dose of Δ8-THCV in MCT oil (LC-MS/MS, non-compartmental analysis)
# Format: in vivo, human
# Set-up: Clast (last quantifiable concentration): unit not given here
# Conditions: for Clast (last quantifiable concentration) / tlast (time to last quantifiable concentration) / concentration at 0.5 h / concentration at 1 h / concentration at 2 h / concentration at 4 h / concentration at 6 h / concentration at 8 h: plasma; for plasma concentration: Predose; for concentration at 0.5 h / concentration at 1 h / concentration at 2 h / concentration at 4 h / concentration at 6 h / concentration at 8 h: human, oral
# Outline: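 Healthy participants received single oral Δ8-THCV in MCT oil (50 mg/mL; 12.5-200 mg, or placebo) after a high-fat, high-calorie breakfast, with ≥1-week washout. Plasma (K2EDTA) sampled predose and 0.5-8 h post-dose, assayed by validated LC-MS/MS including metabolites; PK by non-compartmental analysis, sub-LLOQ values set to 0.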
# [1] = 12.5 mg single oral Δ8-THCV in MCT oil, Mean (±SD)
# [2] = 12.5 mg single oral Δ8-THCV in MCT oil, Median (Range)
# [3] = 25 mg single oral Δ8-THCV in MCT oil, Mean (±SD)
# [4] = 25 mg single oral Δ8-THCV in MCT oil, Median (Range)
# [5] = 50 mg single oral Δ8-THCV in MCT oil, Mean (±SD)
# [6] = 50 mg single oral Δ8-THCV in MCT oil, Median (Range)
# [7] = 100 mg single oral Δ8-THCV in MCT oil, Mean (±SD)
# [8] = 100 mg single oral Δ8-THCV in MCT oil, Median (Range)
# [9] = 200 mg single oral Δ8-THCV in MCT oil, Mean (±SD)
# [10] = 200 mg single oral Δ8-THCV in MCT oil, Median (Range)
# [11] = 12.5 mg, 12.5 mg Δ8-THCV dose, Mean (SD, %CV)
# [12] = 12.5 mg, 12.5 mg Δ8-THCV dose, Median (IQ Range)
# [13] = 25 mg, 25 mg Δ8-THCV dose, Mean (SD, %CV)
# [14] = 25 mg, 25 mg Δ8-THCV dose, Median (IQ Range)
# [15] = 50 mg, 50 mg Δ8-THCV dose, Mean (SD, %CV)
# [16] = 50 mg, 50 mg Δ8-THCV dose, Median (IQ Range)
smiles,measurement,setting,value
"CCCc1cc(O)c2c(c1)OC(C)(C)[C@@H]1CC=C(CO)C[C@@H]21 (racemic) [11-OH-Δ8-THCV, (±)-11-hydroxy-Δ8-THCV]",Clast (last quantifiable concentration),[1],0.8 (±0.2)
same,tlast (time to last quantifiable concentration),[1],3.6 (±1.7)
same,Clast (last quantifiable concentration),[2],0.8 (0.6–1.1)
same,tlast (time to last quantifiable concentration),[2],4 (2–6)
same,Clast (last quantifiable concentration),[3],0.8 (±0.1)
same,tlast (time to last quantifiable concentration),[3],4.3 (±1.8)
same,Clast (last quantifiable concentration),[4],0.8 (0.6–1)
same,tlast (time to last quantifiable concentration),[4],4 (2–6)
same,Clast (last quantifiable concentration),[5],0.9 (±0.3)
same,tlast (time to last quantifiable concentration),[5],7.8 (±0.6)
same,Clast (last quantifiable concentration),[6],0.8 (0.6–1.5)
same,tlast (time to last quantifiable concentration),[6],8 (6–8)
same,Clast (last quantifiable concentration),[7],1.4 (±0.9)
same,tlast (time to last quantifiable concentration),[7],7.6 (±1.2)
same,Clast (last quantifiable concentration),[8],1.1 (0.5–3.8)
same,tlast (time to last quantifiable concentration),[8],8 (4–8)
same,Clast (last quantifiable concentration),[9],3.7 (±2.6)
same,tlast (time to last quantifiable concentration),[9],8 (±0)
same,Clast (last quantifiable concentration),[10],3.1 (1.2–11.3)
same,tlast (time to last quantifiable concentration),[10],8 (8–8)
same,plasma concentration,"12.5 mg Δ8-THCV dose, Mean (SD, %CV)","0 (±0, --) ng/mL"
same,plasma concentration,"12.5 mg Δ8-THCV dose, Median (IQ Range)",0 (0–0) ng/mL
same,plasma concentration,"25 mg Δ8-THCV dose, Mean (SD, %CV)","0 (±0, --) ng/mL"
same,plasma concentration,"25 mg Δ8-THCV dose, Median (IQ Range)",0 (0–0) ng/mL
same,plasma concentration,"50 mg Δ8-THCV dose, Mean (SD, %CV)","0 (±0, --) ng/mL"
same,plasma concentration,"50 mg Δ8-THCV dose, Median (IQ Range)",0 (0–0) ng/mL
same,plasma concentration,"100 mg Δ8-THCV dose, Mean (SD, %CV)","0 (±0, --) ng/mL"
same,plasma concentration,"100 mg Δ8-THCV dose, Median (IQ Range)",0 (0–0) ng/mL
same,plasma concentration,"200 mg Δ8-THCV dose, Mean (SD, %CV)","0 (±0, --) ng/mL"
same,plasma concentration,"200 mg Δ8-THCV dose, Median (IQ Range)",0 (0–0) ng/mL
same,median AUClast ratio Δ8-THCV-COOH/Δ8-THCV/11-OH-Δ8-THCV,"after the 200 mg dose, Δ8-THCV = 1",0.18
same,concentration at 0.5 h,[11],0 ng/mL
same,concentration at 0.5 h,[12],0 ng/mL
same,concentration at 1 h,[11],0 ng/mL
same,concentration at 1 h,[12],0 ng/mL
same,concentration at 2 h,[11],0.1 ng/mL
same,concentration at 2 h,[12],0 ng/mL
same,concentration at 4 h,[11],0.1 ng/mL
same,concentration at 4 h,[12],0 ng/mL
same,concentration at 6 h,[11],0.1 ng/mL
same,concentration at 6 h,[12],0 ng/mL
same,concentration at 8 h,[11],0 ng/mL
same,concentration at 8 h,[12],0 ng/mL
same,concentration at 0.5 h,[13],0 ng/mL
same,concentration at 0.5 h,[14],0 ng/mL
same,concentration at 1 h,[13],0.1 ng/mL
same,concentration at 1 h,[14],0 ng/mL
same,concentration at 2 h,[13],0.3 ng/mL
same,concentration at 2 h,[14],0 ng/mL
same,concentration at 4 h,[13],0.2 ng/mL
same,concentration at 4 h,[14],0 ng/mL
same,concentration at 6 h,[13],0.2 ng/mL
same,concentration at 6 h,[14],0 ng/mL
same,concentration at 8 h,[13],0 ng/mL
same,concentration at 8 h,[14],0 ng/mL
same,concentration at 0.5 h,[15],0 ng/mL
same,concentration at 0.5 h,[16],0 ng/mL
same,concentration at 1 h,[15],0.1 ng/mL
same,concentration at 1 h,[16],0 ng/mL
same,concentration at 2 h,[15],0.4 ng/mL
same,concentration at 2 h,[16],0 ng/mL
same,concentration at 4 h,[15],0.6 ng/mL
same,concentration at 4 h,[16],0 ng/mL
same,concentration at 6 h,[15],1 ng/mL
same,concentration at 6 h,[16],0.9 ng/mL
same,concentration at 8 h,[15],0.6 ng/mL
same,concentration at 8 h,[16],0.6 ng/mL
